Square brackets hold non-standard residues; d marks the D form. Peptide text beside a SMILES is read from it. * marks the point of attachment. Orn = NCCC[C@H](N)C(=O)O; Hexanoyl = CCCCCC(=O)*; Aib = CC(C)(N)C(=O)O
Assays:
[1] = biological target: T1, human VPAC2 (Homo sapiens, UniProt P41587); assay: Filter binding assay, 125I-labeled VIP tracer, VPAC2 membranes; details: read-out: Human VPAC2 Receptor Binding (IC50; nM)
T1 construct: expressed in transfected cells
T1 sequence (P41587 24-438): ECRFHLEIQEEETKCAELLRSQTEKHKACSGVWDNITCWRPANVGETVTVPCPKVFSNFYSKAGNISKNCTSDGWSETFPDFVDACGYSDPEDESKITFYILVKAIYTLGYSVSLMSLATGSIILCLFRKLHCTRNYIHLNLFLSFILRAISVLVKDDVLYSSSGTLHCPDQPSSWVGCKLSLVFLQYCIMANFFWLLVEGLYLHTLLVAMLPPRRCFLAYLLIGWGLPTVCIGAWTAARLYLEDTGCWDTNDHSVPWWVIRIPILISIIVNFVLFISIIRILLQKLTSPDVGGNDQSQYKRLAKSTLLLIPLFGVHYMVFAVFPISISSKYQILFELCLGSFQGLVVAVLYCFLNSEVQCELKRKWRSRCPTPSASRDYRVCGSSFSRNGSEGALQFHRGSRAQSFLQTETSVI

[2] = biological target: T2, rat VPAC2 receptor (Rattus norvegicus, UniProt P35000); assay: DiscoveRx cAMP assay, in vitro potency at rat VPAC2 receptor; format: cell-based; details: CHO-PO cells transiently transfected with rat VPAC2; cAMP generation; mean of two independent runs
T2 construct: expressed in transfected cells; host or cells: CHO-PO (transient, Lipofectamine)
T2 sequence (P35000 23-437): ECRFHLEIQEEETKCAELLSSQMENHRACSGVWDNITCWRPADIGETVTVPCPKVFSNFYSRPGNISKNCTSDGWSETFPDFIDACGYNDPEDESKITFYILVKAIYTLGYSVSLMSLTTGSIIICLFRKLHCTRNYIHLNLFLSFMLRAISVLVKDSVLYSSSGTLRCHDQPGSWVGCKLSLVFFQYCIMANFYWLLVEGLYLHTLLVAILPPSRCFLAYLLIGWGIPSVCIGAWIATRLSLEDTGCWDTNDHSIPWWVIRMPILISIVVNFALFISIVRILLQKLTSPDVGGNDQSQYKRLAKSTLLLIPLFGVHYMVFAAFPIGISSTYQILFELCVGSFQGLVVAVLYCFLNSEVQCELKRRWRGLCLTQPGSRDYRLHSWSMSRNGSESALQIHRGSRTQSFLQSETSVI
Protocol: DiscoveRx: CHO-PO cells are transiently transfected with rat VPAC1 or VPAC2 receptor DNA using commercially available transfection reagents (Lipofectamine from Invitrogen). The cells are seeded at a density of 10,000/well in a 96-well plate and are allowed to grow for 3 days in […] culture medium. At day 3, the assay is performed.
On the day of the experiment, the medium is removed. Also, the cells are washed twice. The cells are incubated in assay buffer plus IBMX for 15 minutes at room temperature. Afterwards, the stimuli are added and are dissolved in assay buffer. The stimuli are present for 30 minutes. Then, the assay buffer is gently removed. The cell lysis reagent of the DiscoveRx cAMP kit is added. Thereafter, the standard protocol for developing the cAMP signal as described by the manufacturer is used (DiscoveRx Inc., USA). EC50 values for cAMP generation are calculated from the raw signal or are based on absolute cAMP levels as determined by a standard curve performed on each plate.
Results for each agonist are the mean of two independent runs. Rat VPAC1 and VPAC2 results are only generated using the DiscoveRx assay.

[3] = biological target: T3, human PAC1 (Homo sapiens, UniProt P41586); assay: Filter binding assay, 125I-labeled PACAP-27 tracer, PAC1 membranes; details: read-out: Human PAC1 Receptor Binding (IC50; nM)
T3 construct: expressed in transfected cells
T3 sequence (P41586 21-468): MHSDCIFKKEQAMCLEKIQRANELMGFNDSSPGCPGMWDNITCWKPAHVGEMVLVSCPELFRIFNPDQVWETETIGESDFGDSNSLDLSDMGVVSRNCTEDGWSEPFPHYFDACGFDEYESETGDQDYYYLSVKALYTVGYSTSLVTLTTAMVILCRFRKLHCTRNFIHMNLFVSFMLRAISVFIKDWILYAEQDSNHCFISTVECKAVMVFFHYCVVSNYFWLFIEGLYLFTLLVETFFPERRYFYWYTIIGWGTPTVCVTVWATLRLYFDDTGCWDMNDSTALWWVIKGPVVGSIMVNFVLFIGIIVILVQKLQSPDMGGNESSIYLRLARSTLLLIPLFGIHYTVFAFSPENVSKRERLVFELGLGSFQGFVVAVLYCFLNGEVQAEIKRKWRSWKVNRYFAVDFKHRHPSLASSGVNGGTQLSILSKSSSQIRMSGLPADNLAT

[4] = biological target: T1, human VPAC2; assay: Alpha screen cAMP assay, in vitro potency at human VPAC2 receptor; format: cell-based; details: cAMP generation; single result from two analyses in a single run, some values average of more than one experiment
[5] = biological target: T4, human VPAC1 (Homo sapiens, UniProt P32241); assay: Filter binding assay, 125I-labeled VIP tracer, VPAC1 membranes; details: read-out: Human VPAC1 Receptor Binding (IC50; nM)
T4 construct: expressed in transfected cells
T4 sequence (P32241 31-457): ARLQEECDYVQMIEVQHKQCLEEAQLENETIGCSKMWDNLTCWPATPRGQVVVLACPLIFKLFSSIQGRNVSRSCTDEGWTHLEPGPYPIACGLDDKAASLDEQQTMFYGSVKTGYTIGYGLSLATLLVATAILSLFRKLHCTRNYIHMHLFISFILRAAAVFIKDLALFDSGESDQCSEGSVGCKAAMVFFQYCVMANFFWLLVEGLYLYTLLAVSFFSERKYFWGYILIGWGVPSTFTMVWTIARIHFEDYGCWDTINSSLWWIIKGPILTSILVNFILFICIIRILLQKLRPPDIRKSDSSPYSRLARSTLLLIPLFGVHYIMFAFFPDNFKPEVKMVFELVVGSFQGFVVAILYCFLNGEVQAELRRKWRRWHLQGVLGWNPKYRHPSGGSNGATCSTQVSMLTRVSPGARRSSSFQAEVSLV

[6] = Rat serum stability (activity remaining, CHO-VPAC2 DiscoveRx read-out); format: in vitro ADME
Summary of the method: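 Peptides preincubated overnight in rat serum at 37 °C without aprotinin versus 4 °C with aprotinin, then tested as 11-point 5× dilutions in duplicate on CHO-VPAC2 cells, 30 min at RT. cAMP measured by DiscoveRx kit against standards; EC50 derived for each aliquot.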

| Compound | IC50 [1] [nM] | EC50 [2] [nM] | IC50 [3] [nM] | EC50 [4] [nM] | IC50 [5] [nM] | Rat Serum Stability (estimated purity in % after overnight incub.) [6] [%] |
| --- | --- | --- | --- | --- | --- | --- |
| CCCCCC(=O)N[C@@H](Cc1c[nH]cn1)C(=O)N[C@@H](CO)C(=O)N[C@@H](CC(=O)O)C(=O)N[C@@H](C)C(=O)N[C@H](C(=O)N[C@@H](Cc1ccccc1)C(=O)N[C@H](C(=O)N[C@@H](CC(=O)O)C(=O)N[C@@H](CC(N)=O)C(=O)N[C@@H](Cc1ccc(O)cc1)C(=O)N[C@H](C(=O)N[C@@H](CCCN)C(=O)N[C@@H](CC(C)C)C(=O)N[C@@H](CCCNC(=N)N)C(=O)NC(C)(C)C(=O)N[C@@H](CO)C(=O)N[C@H](C(=O)N[C@@H](C)C(=O)N[C@@H](C)C(=O)NC(C)(C)C(=O)N[C@@H](CCCCN)C(=O)N[C@@H](Cc1ccc(O)cc1)C(=O)N[C@@H](CC(C)C)C(=O)N[C@@H](CCC(N)=O)C(=O)N[C@@H](CO)C(=O)N[C@H](C(=O)N[C@@H](CCCN)C(=O)N[C@@H](CC(N)=O)C(=O)N[C@@H](CCCN)C(=O)NCC(=O)NCC(=O)N1CCC[C@H]1C(=O)N[C@@H](CO)C(=O)N[C@@H](CO)C(=O)NCC(=O)N[C@@H](C)C(=O)N1CCC[C@H]1C(=O)N1CCC[C@H]1C(=O)N1CCC[C@H]1C(=O)N[C@@H](CO)C(=O)O)[C@@H](C)CC)C(C)C)[C@@H](C)O)[C@@H](C)O)C(C)C [Agonist P390] (Hexanoyl-HSDAVFTDNYT[Orn]LR[Aib]SVAA[Aib]KYLQSI[Orn]N[Orn]GGPSSGAPPPS-OH; C-terminus assumed) | 0.26 | 0.09 | > 25000 | 0.12 | – | – |
| CCCCCC(=O)N[C@@H](Cc1c[nH]cn1)C(=O)N[C@@H](CO)C(=O)N[C@@H](CC(=O)O)C(=O)N[C@@H](C)C(=O)N[C@H](C(=O)N[C@@H](Cc1ccccc1)C(=O)N[C@H](C(=O)N[C@@H](CC(=O)O)C(=O)N[C@@H](CCC(N)=O)C(=O)N[C@@H](Cc1ccc(O)cc1)C(=O)N[C@H](C(=O)N[C@@H](CCCN)C(=O)N[C@@H](CC(C)C)C(=O)N[C@@H](CCCNC(=N)N)C(=O)NC(C)(C)C(=O)N[C@@H](CCC(N)=O)C(=O)N[C@H](C(=O)N[C@@H](C)C(=O)N[C@@H](C)C(=O)NC(C)(C)C(=O)N[C@@H](CCCN)C(=O)N[C@@H](Cc1ccc(O)cc1)C(=O)N[C@@H](CC(C)C)C(=O)N[C@@H](CCC(N)=O)C(=O)N[C@@H](CO)C(=O)N[C@H](C(=O)N[C@@H](CCCN)C(=O)N[C@@H](CCCN)C(=O)NCC(=O)NCC(=O)N1CCC[C@H]1C(=O)N[C@@H](CO)C(=O)N[C@@H](CO)C(=O)NCC(=O)N[C@@H](C)C(=O)N1CCC[C@H]1C(=O)N1CCC[C@H]1C(=O)N1CCC[C@H]1C(=O)N[C@@H](CO)C(=O)O)[C@@H](C)CC)C(C)C)[C@@H](C)O)[C@@H](C)O)C(C)C [Agonist P396] (Hexanoyl-HSDAVFTDQYT[Orn]LR[Aib]QVAA[Aib][Orn]YLQSI[Orn][Orn]GGPSSGAPPPS-OH; C-terminus assumed) | 0.26 | 0.05 | > 25000 | 0.11 | > 3000 | 93.07 |
| CCCCCC(=O)N[C@@H](Cc1c[nH]cn1)C(=O)N[C@@H](CO)C(=O)N[C@@H](CC(=O)O)C(=O)N[C@@H](C)C(=O)N[C@H](C(=O)N[C@@H](Cc1ccccc1)C(=O)N[C@H](C(=O)N[C@@H](CCC(=O)O)C(=O)N[C@@H](CCC(N)=O)C(=O)N[C@@H](Cc1ccc(OC)cc1)C(=O)N[C@H](C(=O)N[C@@H](CCCN)C(=O)N[C@@H](CC(C)C)C(=O)N[C@@H](CCCNC(=N)N)C(=O)NC(C)(C)C(=O)N[C@@H](CCC(N)=O)C(=O)N[C@@H](CC(C)C)C(=O)N[C@@H](C)C(=O)N[C@@H](C)C(=O)NC(C)(C)C(=O)N[C@@H](CCCN)C(=O)N[C@@H](Cc1ccc(O)cc1)C(=O)N[C@@H](CC(C)C)C(=O)N[C@@H](CCC(N)=O)C(=O)N[C@@H](CO)C(=O)N[C@H](C(=O)N[C@@H](CCCN)C(=O)N[C@@H](CCCN)C(=O)NCC(=O)NCC(=O)N1CCC[C@H]1C(=O)N[C@@H](CO)C(=O)N[C@@H](CO)C(=O)NCC(=O)N[C@@H](C)C(=O)N1CCC[C@H]1C(=O)N1CCC[C@H]1C(=O)N1CCC[C@H]1C(=O)N[C@@H](CO)C(N)=O)[C@@H](C)CC)[C@@H](C)O)[C@@H](C)O)C(C)C [Agonist P487] (Hexanoyl-HSDAVFTEQY(Me)T[Orn]LR[Aib]QLAA[Aib][Orn]YLQSI[Orn][Orn]GGPSSGAPPPS-NH2) | 0.64 | 0.03 | – | 0.24 | > 1000 | 76.98 |
